Holding throughout (assay): normalised viability (% of control), CellTiter-Blue; higher = more viable cells (about 100 = DMSO control)
Conditions in all cases: incubation time: 72 h

One assay has as its system HCC1599. Put shortly:
(§1)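 Each entry is normalised viability at a single listed concentration within a series. It comes from breast cancer cell lines incubated 72 h with compound in 384-well plates, then measured with CellTiter-Blue fluorescence at 560/590 nm. Every plate was normalised between vehicle (100) and a positive kill control (0).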

The next assay relates to Hs578T. A digest of the protocol:
as §1

A further assay has as its system MDA-MB-453. A digest of the protocol:
as §1

The test system of another assay is HCC1937. A digest of the protocol: as §1
A further assay has as its system CAL-85-1. A digest of the protocol:
as §1

The test system of the next assay is MDA-MB-231. A digest of the protocol:
as §1

Another assay has as its system HCC1143. A digest of the protocol:
as §1

A further assay deals with SK-BR-3. Put shortly: as §1

The structures appear in SMILES notation. Several values for one entry are separate records, joined by “and”; a condition that tells them apart may be missing. Equal values may be shown once.

This note sets out measurements from the supplement of paper PMC4862054.

For the molecule `CC[C@@H]1C(=O)OC[C@@H]1Cc1cncn1C` [Pilocarpine], the normalised viability in the assay on HCC1599 (400 nM) was found to be 99.6%; in the assay on Hs578T (400 nM), 110%; in the assay with MDA-MB-453 (40 nM) it was 102%; in the assay with HCC1937 (400 nM) it was 95.1%; with CAL-85-1 (40 nM), 98%; with MDA-MB-231 (400 nM), 93.3%. For the same molecule, the normalised viability in the assay on HCC1143 (400 nM) is 90.1%; with SK-BR-3 (400 nM) it was 103%.
As for `Cn1cc(C2=Nc3cc(NC(=O)C(N)C4CCCCC4)cc4c3C2=CNNC4=O)cn1` (centres undefined), the normalised viability in the assay with HCC1599 (100 nM) was 75.9%; in the assay on Hs578T (100 nM) it was 87.3%; in the assay with MDA-MB-453 (10 nM), 85.9%; in the assay with HCC1937 (100 nM) it was 90.7%; in the assay with CAL-85-1 (10 nM), 81.8%; in the assay on MDA-MB-231 (100 nM) it was 83.3%. Further, the values for the normalised viability in the assay on HCC1143 (100 nM) and with SK-BR-3 (100 nM) were 101% and 38.4%, respectively.
In the case of `COc1cc2c(cc1O)CC[C@@H]1[C@@H]2CC[C@]2(C)[C@@H](O)CC[C@@H]12` [2-methoxyestradiol], the normalised viability stood at 95% with HCC1599 (100 nM); 103% in the assay with Hs578T (100 nM); 95.3% with MDA-MB-453 (10 nM); 103% with HCC1937 (100 nM); 101% with CAL-85-1 (10 nM); 94.3% with MDA-MB-231 (100 nM). Also, the values for the normalised viability in the assay on HCC1143 (100 nM) and with SK-BR-3 (100 nM) were 99.8% and 99.2%, respectively.
For `CC(C)(C)c1cnc(CSc2cnc(NC(=O)C3CCNCC3)s2)o1` [SNS-032], the normalised viability amounted to 78.6% in the assay with HCC1599 (100 nM); 52.8% in the assay on Hs578T (100 nM); 99.8% in the assay with MDA-MB-453 (10 nM); 53.2% in the assay on HCC1937 (100 nM); 96.2% in the assay with CAL-85-1 (10 nM); 69.5% with MDA-MB-231 (100 nM). The normalised viability in the assay with HCC1143 (100 nM) is 76.5%; with SK-BR-3 (100 nM), 62.1%.
On to `CC(=O)c1c(C)c2cnc(Nc3ccc(N4CCNCC4)cn3)nc2n(C2CCCC2)c1=O`, for which the normalised viability in the assay with HCC1599 (100 nM) was determined as 88.2%; in the assay on Hs578T (100 nM) it was 66.3%; with MDA-MB-453 (10 nM), 104%; in the assay on HCC1937 (100 nM), 97.2%; in the assay with CAL-85-1 (10 nM) it was 102%; in the assay on MDA-MB-231 (100 nM) it was 88.5%. Moreover, the normalised viability was found to be 82.3% with HCC1143 (100 nM) and 78% in the assay with SK-BR-3 (100 nM).
Consider `C[C@]1(O)C[C@@H](c2nc(-c3ccc4ccc(-c5ccccc5)nc4c3)c3c(N)nccn32)C1` [OSI-906], for which the normalised viability in the assay with HCC1599 (100 nM) worked out at 94.9%; in the assay on Hs578T (100 nM), 74.8%; in the assay on MDA-MB-453 (10 nM), 86.6%; with HCC1937 (100 nM), 92.5%; in the assay with CAL-85-1 (10 nM), 104%; with MDA-MB-231 (100 nM), 83.8%. Besides, the normalised viability was 105% with HCC1143 (100 nM) and 78.3% in the assay on SK-BR-3 (100 nM).
As for `O=NN(CCCl)C(=O)NCCCl` [Carmustine], the normalised viability in the assay with HCC1599 (100 nM) was 114%; with Hs578T (100 nM) it was 96.3%; in the assay on MDA-MB-453 (10 nM) it was 109%; with HCC1937 (100 nM), 87.8%; with CAL-85-1 (10 nM), 95%; in the assay with MDA-MB-231 (100 nM) it was 90.8%. Also, the normalised viability with HCC1143 (100 nM) came to 91.8%; in the assay with SK-BR-3 (100 nM), 102%.
Turning to `Cc1sc2c(c1C)C(c1ccc(Cl)cc1)=N[C@@H](CC(=O)OC(C)(C)C)c1nnc(C)n1-2` [(+)JQ1], the normalised viability in the assay on HCC1599 (100 nM) came to 100%; in the assay on Hs578T (100 nM), 72.6%; in the assay with MDA-MB-453 (10 nM), 108%; in the assay with HCC1937 (100 nM), 98.4%; in the assay with CAL-85-1 (10 nM), 101%; with MDA-MB-231 (100 nM), 95.9%. The normalised viability in the assay on HCC1143 (100 nM) amounted to 92.2%; in the assay with SK-BR-3 (100 nM), 98.3%.
Regarding `Nc1ncn([C@@H]2O[C@H](CO)[C@@H](O)[C@H]2O)c(=O)n1` [Azacitidine], the normalised viability is 97% in the assay with HCC1599 (100 nM); 91.7% in the assay on Hs578T (100 nM); 101% in the assay with MDA-MB-453 (10 nM); 98.3% in the assay on HCC1937 (100 nM); 95.2% in the assay with CAL-85-1 (10 nM); 84.5% with MDA-MB-231 (100 nM). Also, the figures for the normalised viability with HCC1143 (100 nM) and in the assay with SK-BR-3 (100 nM) were 91.5% and 89.3%, respectively.
As to `CC1(C)CNc2cc(NC(=O)c3cccnc3NCc3ccncc3)ccc21` [Motesanib], the normalised viability in the assay with HCC1599 (100 nM) is 101%; in the assay on Hs578T (100 nM), 90.8%; in the assay on MDA-MB-453 (10 nM), 82.7%; with HCC1937 (100 nM), 90.5%; in the assay with CAL-85-1 (10 nM), 91.4%; with MDA-MB-231 (100 nM), 79.2%. Also, the normalised viability in the assay with HCC1143 (100 nM) was 79.1%; with SK-BR-3 (100 nM), 79.3%.
`CC1=C2C[C@H]3[C@@H](CC=C4C[C@@H](O)CC[C@@]43C)[C@@H]2CC[C@]12O[C@@H]1C[C@H](C)CN[C@H]1[C@H]2C` [Cyclopamine]: the normalised viability in the assay on HCC1599 (100 nM) was found to be 113%; in the assay with Hs578T (100 nM) it was 84.1%; in the assay with MDA-MB-453 (10 nM) it was 123%; in the assay on HCC1937 (100 nM), 100%; in the assay with CAL-85-1 (10 nM), 109%; in the assay with MDA-MB-231 (100 nM), 84.9%. Also, the values for the normalised viability in the assay on HCC1143 (100 nM) and in the assay with SK-BR-3 (100 nM) were 116% and 90.8%, respectively.
As for `CC(=O)O[C@@]12CO[C@@H]1C[C@H](O)[C@@]1(C)C(=O)[C@H](O)C3=C(C)[C@@H](OC(=O)[C@H](O)[C@@H](NC(=O)OC(C)(C)C)c4ccccc4)C[C@@](O)([C@@H](OC(=O)c4ccccc4)[C@H]21)C3(C)C` [Docetaxel], the normalised viability in the assay on HCC1599 (10 nM) was 110% and 108%; with Hs578T (10 nM) it was 13.1% and 18.8%; in the assay with MDA-MB-453 (1 nM), 85.9% and 66.5%; with HCC1937 (10 nM), 32.2% and 27.2%; in the assay with CAL-85-1 (1 nM) it was 88.3% and 86.5%; with MDA-MB-231 (10 nM) it was 34.8% and 32.6%. Moreover, the normalised viability with HCC1143 (10 nM) was 51.7% and 35.2%; in the assay on SK-BR-3 (10 nM), 6.91% and 8.46%.
With `COc1cc(F)c(F)c(Nc2ccc(I)cc2F)c1NS(=O)(=O)C1(C[C@H](O)CO)CC1` [RDEA119], the normalised viability with HCC1599 (100 nM) was determined as 87.4%; in the assay with Hs578T (100 nM), 76%; in the assay on MDA-MB-453 (10 nM), 78.3%; with HCC1937 (100 nM), 87.7%; with CAL-85-1 (10 nM) it was 97.3%; in the assay on MDA-MB-231 (100 nM) it was 45%. Further, the normalised viability in the assay on HCC1143 (100 nM) is 90.8%; with SK-BR-3 (100 nM), 90.7%.
